Several values for one entry are separate records, joined by “and”; a condition that tells them apart may be missing. Equal values may be shown once. Toxic doses and inconclusive results are not listed.
System: BDF1 mice, B16 melanoma ip, median survival T/C
Experiment: NCI In Vivo Anticancer Drug Screen. Data for tumor model B16 Melanoma (intraperitoneal) in B6D2F1 (BDF1) mice
Details: endpoint: median survival time, higher = longer survival
In short: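 Mice with transplantable tumors; drug vs vehicle groups; endpoint survival or tumor size; value = T/C.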

[1] = dose: 100.0 mg/kg/injection, schedule: Q01DX009 (ip), vehicle: Klucel (hydroxypropylcellulose) (HPC)
[2] = dose: 200.0 mg/kg/injection, schedule: Q01DX009 (ip), vehicle: Klucel (hydroxypropylcellulose) (HPC)

SMILES: OCCN1CCN(CCCN2c3ccccc3Sc3cccnc32)CC1
- T/C (dose: 9.37 mg/kg/injection, schedule: Q01DX009 (ip), vehicle: saline): 89 % of control
- T/C (dose: 12.5 mg/kg/injection, schedule: Q01DX009 (ip), vehicle: saline): 93 % of control
- T/C (dose: 18.75 mg/kg/injection, schedule: Q01DX009 (ip), vehicle: saline): 107 % of control
- T/C (dose: 25.0 mg/kg/injection, schedule: Q01DX009 (ip), vehicle: saline): 113 % of control
- T/C (dose: 37.5 mg/kg/injection, schedule: Q01DX009 (ip), vehicle: saline): 105 % of control
- T/C (dose: 75.0 mg/kg/injection, schedule: Q01DX009 (ip), vehicle: saline): 102 % of control

SMILES: Cn1c[n+](C)cc1C(=O)[O-]
- T/C (dose: 100.0 mg/kg/injection, schedule: Q01DX009 (ip), vehicle: saline): 115 % of control
- T/C (dose: 200.0 mg/kg/injection, schedule: Q01DX009 (ip), vehicle: saline): 115 % of control
- T/C (dose: 400.0 mg/kg/injection, schedule: Q01DX009 (ip), vehicle: saline): 109 % of control

SMILES: COc1ccc(-n2c(=S)[nH]c3ccccc3c2=O)cc1
- T/C [1]: 97 % of control
- T/C [2]: 88 % of control

SMILES: O=C1c2c(O)ccc(O)c2C(=O)c2c(NCCNCCO)ccc(NCCNCCO)c21
- T/C (dose: 0.13 mg/kg/injection, schedule: Q01DX009 (ip), vehicle: saline with Tween-80): 110 % of control
- T/C (dose: 0.25 mg/kg/injection, schedule: Q01DX009 (ip), vehicle: saline): 186 % of control and 188 % of control
- T/C (dose: 0.25 mg/kg/injection, schedule: Q01DX009 (ip), vehicle: water): 157 % of control and 160 % of control and 174 % of control
- T/C (dose: 0.25 mg/kg/injection, schedule: Q01DX009 (oral), vehicle: acid diluted with saline): 98 % of control
- T/C (dose: 0.5 mg/kg/injection, schedule: Q01DX009 (ip), vehicle: saline): 218 % of control
- T/C (dose: 0.5 mg/kg/injection, schedule: Q01DX009 (ip), vehicle: water): 218 % of control and 225 % of control and 247 % of control
- T/C (dose: 0.5 mg/kg/injection, schedule: Q01DX009 (oral), vehicle: acid diluted with saline): 104 % of control
- T/C (dose: 1.0 mg/kg/injection, schedule: Q01DX009 (ip), vehicle: saline with Tween-80): 152 % of control and 156 % of control
- T/C (dose: 1.0 mg/kg/injection, schedule: Q01DX009 (ip), vehicle: saline): 260 % of control and 267 % of control
- T/C (dose: 1.0 mg/kg/injection, schedule: Q01DX009 (ip), vehicle: water): 121 % of control and 202 % of control and 261 % of control
- T/C (dose: 1.25 mg/kg/injection, schedule: Q01DX001 (ip), vehicle: acid diluted with saline): 153 % of control
- T/C (dose: 2.0 mg/kg/injection, schedule: Q01DX001 (ip), vehicle: water): 212 % of control
- T/C (dose: 2.0 mg/kg/injection, schedule: Q01DX009 (ip), vehicle: saline): 207 % of control and 251 % of control
- T/C (dose: 2.0 mg/kg/injection, schedule: Q01DX009 (ip), vehicle: water): 221 % of control
- T/C (dose: 2.5 mg/kg/injection, schedule: Q01DX001 (ip), vehicle: acid diluted with saline): 123 % of control and 205 % of control
- T/C (dose: 4.0 mg/kg/injection, schedule: Q01DX001 (ip), vehicle: water): 202 % of control
- T/C (dose: 8.0 mg/kg/injection, schedule: Q01DX001 (ip), vehicle: water): 303 % of control

SMILES: CC[C@@H](O)C[C@H]1CCC[C@@]2(C[C@@H]3OC(=O)/C=C/[C@@](C)(O)[C@@H](O)[C@H](C)[C@@H](O)[C@H](OC4CCC(N(C)C)C(C)O4)[C@@H](O)[C@](C)(O)CCCCC/C=C/[C@@H]4CC(C)(C)O[C@@]4(O)C[C@H](O2)[C@H]3C)O1 (stereo partly drawn)
- T/C (dose: 4.0 micrograms/kg/injection, schedule: Q01DX009 (ip), vehicle: saline): 101 % of control
- T/C (dose: 8.0 micrograms/kg/injection, schedule: Q01DX009 (ip), vehicle: saline): 97 % of control
- T/C (dose: 16.0 micrograms/kg/injection, schedule: Q01DX009 (ip), vehicle: saline): 109 % of control
- T/C (dose: 32.0 micrograms/kg/injection, schedule: Q01DX009 (ip), vehicle: saline): 93 % of control

SMILES: O=C(OC1COC(n2c(=O)oc3ccc(F)cc32)C(OC(=O)c2ccccc2)C1OC(=O)c1ccccc1)c1ccccc1 (stereo not drawn)
- T/C (dose: 50.0 mg/kg/injection, schedule: Q01DX009 (ip), vehicle: saline with Tween-80): 93 % of control
- T/C [1]: 89 % of control
- T/C (dose: 100.0 mg/kg/injection, schedule: Q01DX009 (ip), vehicle: saline with Tween-80): 92 % of control
- T/C [2]: 86 % of control
- T/C (dose: 200.0 mg/kg/injection, schedule: Q01DX009 (ip), vehicle: saline with Tween-80): 107 % of control
- T/C (dose: 400.0 mg/kg/injection, schedule: Q01DX009 (ip), vehicle: saline with Tween-80): 90 % of control

From PubChem BioAssay AID192 (DTP/NCI, 2004)
